The record followed here is ChEMBL document CHEMBL3817848, “Synthesis and in vitro α-chymotrypsin inhibitory activity of 6-chlorobenzimidazole derivatives” (Bioorg Med Chem, 2016).

Test [1] in a line: Competitive inhibition of alpha-chymotrypsin (unknown origin) using N-succinyl-L-phenylalanine-p-nitroanilide as substrate. On the set-up: species or system Homo sapiens.
A short description of test [2]: Inhibition of alpha-chymotrypsin (unknown origin) using N-succinyl-L-phenylalanine-p-nitroanilide as substrate preincubated for 25 mins by microplate reader method. Further details: species or system Homo sapiens.
The species entered for the next test is Homo sapiens. Nature of the test: Inhibition of alpha-chymotrypsin (unknown origin) using N-succinyl-L-phenylalanine-p-nitroanilide as substrate at 500 uM preincubated for 25 mins by microplate reader method.
Test [3] in a line: Mixed inhibition of alpha-chymotrypsin (unknown origin) using n-succinyl-l-phenylalanine-p-nitroanilide as substrate. Further details: species or system Homo sapiens.

The structures appear in SMILES notation.

What is called Ki is the dissociation constant of the complex between target and ligand, obtained from inhibition or displacement. The low end stands for tighter binding, the high end for weaker binding. What is called IC50 is the point on the concentration scale where inhibition reaches its midpoint. A lower IC50 goes with greater potency. In general, inhibition refers to how much of the control response was suppressed. Low readings indicate a response near the control, high ones a response far below the control. As for `CCOc1cc(-c2nc3ccc(Cl)cc3[nH]2)ccc1O`, the affinity in test [1], expressed as Ki, was 17.3 µM. Also, the IC50 in test [2] amounted to 15.9 µM. Moreover, the inhibition in the test filed under Homo sapiens was more than 50%.

Consider `O=[N+]([O-])c1ccc(Cl)c(-c2nc3ccc(Cl)cc3[nH]2)c1`, for which the IC50 in test [2] is more than 500 µM. For the same compound, the inhibition in the test listed under Homo sapiens is less than 50%.

Consider `CN(C)c1ccc(-c2nc3ccc(Cl)cc3[nH]2)cc1`, for which, in test [1], the inhibition constant (Ki) stood at 17.5 µM. The compound also returned a 50% inhibitory concentration (IC50) in test [2] of 24.2 µM. This compound also displayed an inhibition in the test filed under Homo sapiens of more than 50%.

In turn, `Clc1ccc2nc(-c3c(Cl)cccc3Cl)[nH]c2c1` returned a Ki in test [1] of 99.8 µM. The compound further registered an IC50 in test [2] of 96.4 µM. The compound further displayed an inhibition in the test filed under Homo sapiens of more than 50%.

As for `Clc1ccc2[nH]c(-c3ccccc3)nc2c1`, the IC50 in test [2] is more than 500 µM. Besides, the inhibition in the test filed under Homo sapiens is less than 50%.

`Clc1ccc2[nH]c(/C=C/c3ccccc3)nc2c1` returned an IC50 in test [2] of 486 µM. For the same compound, the inhibition in the test filed under Homo sapiens was less than 50%.

In test [1], `Clc1ccc2nc(-c3cccnc3)[nH]c2c1` showed a Ki of 50.1 µM. This compound also came in with a half-inhibitory concentration (IC50) in test [2] of 48.9 µM. Besides, in the test filed under Homo sapiens, the inhibition is more than 50%.

Regarding `Clc1ccc(-c2nc3ccc(Cl)cc3[nH]2)c(Cl)c1`, in test [1], the affinity corresponds to a Ki of 39.6 µM. The compound further showed an IC50 in test [2] of 35.6 µM. This compound also had an inhibition in the test listed under Homo sapiens of more than 50%.

As for `Cn1c(-c2ccco2)nc2ccc(Cl)cc21`, the Ki in test [1] is 71.4 µM. This compound also showed an IC50 in test [2] of 93.1 µM. For the same compound, the inhibition in the test listed under Homo sapiens is more than 50%.

The compound `COc1ccc(-c2nc3ccc(Cl)cc3[nH]2)cc1OC` yielded a Ki in test [1] of 16.4 µM. Inhibition in test [2] was half-maximal at 14.8 µM (IC50). In the test listed under Homo sapiens, this compound came in with an inhibition of more than 50%.

The compound `O=[N+]([O-])c1ccc(-c2nc3cc(Cl)ccc3[nH]2)cc1` displayed an IC50 in test [2] of 471 µM. In addition, the inhibition in the test filed under Homo sapiens was less than 50%.

For the compound `COc1cccc(-c2nc3ccc(Cl)cc3[nH]2)c1`, the Ki in test [3] came out at 36.5 µM. This compound also showed an IC50 in test [2] of 38.1 µM. In addition, the inhibition in the test filed under Homo sapiens is more than 50%.

`Clc1ccc2nc(-c3cccc(Br)c3)[nH]c2c1` yielded an IC50 in test [2] of 458 µM. In the test filed under Homo sapiens, the inhibition was less than 50%.

With `Oc1ccccc1-c1nc2cc(Cl)ccc2[nH]1`, in test [2], the IC50 is more than 500 µM. This compound registered an inhibition in the test listed under Homo sapiens of less than 50%.

Consider `Fc1ccccc1-c1nc2ccc(Cl)cc2[nH]1`, for which the Ki in test [1] was found to be 79.3 µM. Besides, in test [2], half-maximal inhibition (IC50) was put at 118 µM. The compound also displayed an inhibition in the test filed under Homo sapiens of more than 50%.

`CC(C)c1ccc(-c2nc3ccc(Cl)cc3[nH]2)cc1` yielded a 50% inhibitory concentration (IC50) in test [2] of 428 µM. This compound also displayed an inhibition in the test filed under Homo sapiens of less than 50%.

In the case of `Clc1ccc2nc(-c3cccc4ccccc34)[nH]c2c1`, the Ki in test [1] came to 25.3 µM. The compound also yielded an IC50 in test [2] of 20.9 µM. In the test listed under Homo sapiens, the inhibition is more than 50%.

In test [1], `Oc1ccc(-c2nc3ccc(Cl)cc3[nH]2)c(O)c1` gave an inhibitory constant (Ki) of 33.3 µM. This compound yielded an IC50 in test [2] of 34.6 µM. Further, the inhibition in the test listed under Homo sapiens is more than 50%.

`Cc1ccc(-c2nc3cc(Cl)ccc3[nH]2)cc1` displayed an IC50 in test [2] of more than 500 µM. The compound further displayed an inhibition in the test listed under Homo sapiens of less than 50%.

As to `N#Cc1ccc(-c2nc3cc(Cl)ccc3[nH]2)cc1`, in test [2], the IC50 is more than 500 µM. Also, the inhibition in the test filed under Homo sapiens was less than 50%.
